Measurements reported in ChEMBL document CHEMBL3769391, “Identification of a new cyathane diterpene that induces mitochondrial and autophagy-dependent apoptosis and shows a potent in vivo anti-colorectal cancer activity” (Eur J Med Chem, 2016).

What was measured:
Type in all cases: functional
[1] = test system: HCT-116; assay: Induction of apoptosis in Bax deficient human HCT116 cells assessed as late apoptotic cells at […] after 24 hrs by Annexin V-FITC/propidium iodide staining based flow cytometry (reference value: 1.56%)
[2] = test system: HCT-116; assay: Induction of apoptosis in Bax deficient human HCT116 cells assessed as early apoptotic cells at […] after 24 hrs by Annexin V-FITC/propidium iodide staining based flow cytometry (reference value: 0.85%)
[3] = test system: HCT-116; assay: Induction of apoptosis in human HCT116 cells assessed as early apoptotic cells at […] after 24 hrs by Annexin V-FITC/propidium iodide staining based flow cytometry (reference value: 2.2%)
[4] = test system: HCT-116; assay: Induction of apoptosis in human HCT116 cells assessed as late apoptotic cells at […] after 24 hrs by Annexin V-FITC/propidium iodide staining based flow cytometry (reference value: 3.73%)
[5] = test system: HCT-116; assay: Induction of apoptosis in human HCT116 cells assessed as necrotic cells at […] after 24 hrs by Annexin V-FITC/propidium iodide staining based flow cytometry (reference value: 0.44%)
[6] = test system: HCT-116; assay: Induction of apoptosis in human HCT116 cells assessed as viable cells at […] after 24 hrs by Annexin V-FITC/propidium iodide staining based flow cytometry (reference value: 93.64%); conditions: HCT-116, 24 h, read-out: Activity
[7] = test system: HCT-116; assay: Induction of apoptosis in human HCT116 cells assessed as late apoptotic cells at 10 uM after 12 hrs by Annexin V-FITC/propidium iodide staining based flow cytometry (reference value: 3.37%)
[8] = test system: HCT-116; assay: Induction of apoptosis in human HCT116 cells assessed as early apoptotic cells at 10 uM after 12 hrs by Annexin V-FITC/propidium iodide staining based flow cytometry (reference value: 1.13%)

SMILES | Activity [1] [%] | Activity [2] [%] | Activity [3] [%] | Activity [4] [%] | Activity [5] [%] | viability [6] [%] | Activity [7] [%] | Activity [8] [%]
OC(CS)C(O)CS (racemic) [DL-DITHIOTHREITOL] | 3.5 | 2.99 | 3.12 | 8.67 | 0.21 | 88 |  | 
CO[C@H]1C(C=O)=CC[C@@H]2C3=C(C(C)C)CC[C@]3(C)CC[C@@]2(C)[C@H]1O |  |  |  |  |  |  | 3.68 | 3.83
CC(=O)N[C@@H](CS)C(=O)O [ACETYLCYSTEINE] | 1.75 | 1.21 | 1.86 | 5.62 | 0.7 | 91.8 |  | 
